Reference: paper PMC6081437, “The potency of the broad spectrum bacteriocin, bactofencin A, against staphylococci is highly dependent on primary structure, N-terminal charge and disulphide formation” (Scientific Reports, 2018)
Where two headings read alike, the source gives them in different places. Bridge positions count the residues as written; N and C are the ends. Square brackets hold non-standard residues; d marks the D form. Ends that are not written are not given here. Peptide text beside a SMILES is read from it.

Legend:
S. aureus DPC5246 = type: cell-based, Staphylococcus aureus; conditions: for fold reduction in activity compared with bactofencin A (wild type): S. aureus DPC5246, agar well diffusion MIC
Method in brief: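 Agar well diffusion assay: peptides in 50 mM sodium phosphate pH 6.8, 1-in-4 dilutions from 1000 µM stock (250 to 0.24 µM) applied to S. aureus DPC5246 indicator plates at 37 °C. MIC is the lowest concentration giving an inhibition zone, in triplicate; concentrations rounded to whole numbers.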

Listeria innocua DPC3572 = type: cell-based
Description: (§1) Peptides were resuspended at 1000 µM in 50 mM sodium phosphate buffer pH 6.8 and checked for purity by MALDI-TOF-MS. Peptides were serially diluted 1 in 4 to give a dilution series of 250, 62.50, 15.63, 3.91, 0.98 and 0.24 µM and assayed by the agar well diffusion assay described by Ryan et al.[19]. Briefly, 50 µl aliquots of each peptide concentration were plated on a S. aureus DPC5246 indicator plate and the plate incubated at 37 °C. Peptide activity (Minimum Inhibitory Concentration (MIC)) was taken as the lowest concentration of peptide to give a zone of inhibition. All assays were performed in triplicate. The dilution series values were rounded to the nearest whole number to give 1000, 250, 63, 16, 4, 1 and 0.25 µM and data is colour coded for ease of interpretation.
(§2) Bactofencin R8Q and bactofencin R8K were synthesised as described above and their activity compared to bactofencin A against S. aureus DPC5246, Listeria innocua DPC3572 and L. monocytogenes ATCC 23074.

[1] = tested on: L. monocytogenes ATCC 23074; type: cell-based, Listeria monocytogenes
Description: as §1, §2

Listeria spp. = conditions: cell free supernatants of L plantarum ST31 against L. innocua and L. monocytogenes; cited from earlier work
From the text: Todorov et al. (1999) previously described plantaricin ST31, a bacteriocin with an amino acid sequence determined to be KRKKHRXQVYNNGMPTGMYR, produced by a sourdough isolate Lactobacillus plantarum ST31, with a reported mass of 2755 + /− 0.3 Da[20]. Substitution of Cys for X results in a peptide with a mass of 2468 Da. However if tryptophan and cysteine, the C terminal amino acids of bactofencin A are included, a mass of 2757 Da is obtained and subsequent oxidation of cysteines gives the published mass, 2755 Da.

Molecule: CSCC[C@@H]1NC(=O)CNC(=O)[C@H]([C@@H](C)O)NC(=O)[C@@H]2CCCN2C(=O)[C@H](CCSC)NC(=O)CNC(=O)[C@H](CC(N)=O)NC(=O)[C@H](CC(N)=O)NC(=O)[C@H](Cc2ccc(O)cc2)NC(=O)[C@H](C(C)C)NC(=O)[C@H](CCCNC(=N)N)NC(=O)[C@@H](NC(=O)[C@H](CCCNC(=N)N)NC(=O)[C@H](Cc2c[nH]cn2)NC(=O)[C@H](CCCCN)NC(=O)[C@H](CCCCN)NC(=O)[C@H](CCCNC(=N)N)NC(=O)[C@@H](N)CCCCN)CSSC[C@@H](C(=O)O)NC(=O)[C@H](Cc2c[nH]c3ccccc23)NC(=O)[C@H](CCCNC(=N)N)NC(=O)[C@H](C)NC1=O [Y19A] (H-KRKKHRCRVYNNGMPTGMARWC-OH; disulfide 7-22)
- Activity (Minimum Inhibitory Concentration, MIC) (S. aureus DPC5246; DPC5246, pH 6.8): 1 µM

Molecule: CSCC[C@@H]1NC(=O)CNC(=O)[C@H]([C@@H](C)O)NC(=O)[C@@H]2CCCN2C(=O)[C@H](CCSC)NC(=O)CNC(=O)[C@H](CC(N)=O)NC(=O)[C@H](CC(N)=O)NC(=O)[C@H](Cc2ccc(O)cc2)NC(=O)[C@H](C(C)C)NC(=O)[C@H](CCCNC(=N)N)NC(=O)[C@@H](NC(=O)[C@H](CCCNC(=N)N)NC(=O)[C@H](Cc2c[nH]cn2)NC(=O)[C@H](CCCCN)NC(=O)[C@H](CCCCN)NC(=O)[C@H](CCCNC(=N)N)NC(=O)[C@@H](N)CCCCN)CSSC[C@@H](C(=O)O)NC(=O)[C@H](Cc2c[nH]c3ccccc23)NC(=O)[C@H](CCCNC(=N)N)NC(=O)[C@@H](Cc2ccc(O)cc2)NC1=O [Y19Yd] (H-KRKKHRCRVYNNGMPTGM[dY]RWC-OH; disulfide 7-22; N-terminus assumed)
- Activity (Minimum Inhibitory Concentration, MIC) (S. aureus DPC5246; DPC5246, pH 6.8): 63 µM
- fold reduction in activity compared with bactofencin A (wild type) (S. aureus DPC5246): 63 fold

Molecule: CSCC[C@@H]1NC(=O)CNC(=O)[C@H]([C@@H](C)O)NC(=O)[C@@H]2CCCN2C(=O)[C@H](CCSC)NC(=O)CNC(=O)[C@H](CC(N)=O)NC(=O)[C@H](CC(N)=O)NC(=O)[C@H](Cc2ccc(O)cc2)NC(=O)[C@H](C(C)C)NC(=O)[C@H](CCCNC(=N)N)NC(=O)[C@@H](NC(=O)[C@H](CCCNC(=N)N)NC(=O)[C@H](Cc2c[nH]cn2)NC(=O)[C@H](CCCCN)NC(=O)[C@H](CCCCN)NC(=O)[C@H](CCCNC(=N)N)NC(=O)[C@@H](N)CCCCN)CSSC[C@@H](C(=O)O)NC(=O)[C@H](Cc2c[nH]c3ccccc23)NC(=O)[C@H](CCCNC(=N)N)NC(=O)[C@H](Cc2ccc(O)cc2)NC1=O [bactofencin A] (H-KRKKHRCRVYNNGMPTGMYRWC-OH; disulfide 7-22)
- Activity (MIC) (Listeria innocua DPC3572): 63 µM
- Activity (Minimum Inhibitory Concentration, MIC) (S. aureus DPC5246; DPC5246, pH 6.8): 1 µM
- Activity (MIC) ([1]; ATCC 23074): 63 µM

Molecule: CSCC[C@@H]1NC(=O)CNC(=O)[C@H]([C@@H](C)O)NC(=O)[C@@H]2CCCN2C(=O)[C@H](CCSC)NC(=O)CNC(=O)[C@H](CC(N)=O)NC(=O)[C@H](CC(N)=O)NC(=O)[C@H](Cc2ccc(O)cc2)NC(=O)[C@H](C(C)C)NC(=O)[C@H](CCC(N)=O)NC(=O)[C@@H](NC(=O)[C@H](CCCNC(=N)N)NC(=O)[C@H](Cc2c[nH]cn2)NC(=O)[C@H](CCCCN)NC(=O)[C@H](CCCCN)NC(=O)[C@H](CCCNC(=N)N)NC(=O)[C@@H](N)CCCCN)CSSC[C@@H](C(=O)O)NC(=O)[C@H](Cc2c[nH]c3ccccc23)NC(=O)[C@H](CCCNC(=N)N)NC(=O)[C@H](Cc2ccc(O)cc2)NC1=O [bactofencin R8Q] (H-KRKKHRCQVYNNGMPTGMYRWC-OH; disulfide 7-22; N-terminus assumed)
- Activity (MIC) (Listeria innocua DPC3572; L. innocua DPC3572, agar well diffusion): 250 µM
- Activity (Minimum Inhibitory Concentration, MIC) (S. aureus DPC5246; agar well diffusion, 50 µl aliquots of 1 in 4 serial dilutions from 1000 µM in 50 mM sodium phosphate buffer pH 6.8, 37 °C, lowest concentration giving a zone of inhibition, triplicate, values rounded to whole numbers): 1 µM
- Activity (MIC) ([1]; L. monocytogenes ATCC 23074, agar well diffusion): 250 µM

Molecule: KRKKHRARVYNNGMPTGMYRWA [C7A-C22A]
- Activity (Minimum Inhibitory Concentration, MIC) (S. aureus DPC5246; DPC5246, pH 6.8): 16 µM
- fold reduction in activity compared with bactofencin A (wild type) (S. aureus DPC5246): 16 fold

Molecule: KRKKHRARVYNNGMPTGMYRWC-OH [C7A]
- Activity (Minimum Inhibitory Concentration, MIC) (S. aureus DPC5246; DPC5246, pH 6.8): 16 µM
- fold reduction in activity compared with bactofencin A (wild type) (S. aureus DPC5246): 16 fold

Molecule: KRKKHRCRVYNNGMPTGMYRWA-OH [C22A]
- Activity (Minimum Inhibitory Concentration, MIC) (S. aureus DPC5246; DPC5246, pH 6.8): 63 µM
- fold reduction in activity compared with bactofencin A (wild type) (S. aureus DPC5246): 63 fold

Molecule: KRKKHRCRVYNNGMPTGMYRWS [C22S]
- Activity (Minimum Inhibitory Concentration, MIC) (S. aureus DPC5246; DPC5246, pH 6.8): 250 µM
- fold reduction in activity compared with bactofencin A (wild type) (S. aureus DPC5246): 250 fold

Molecule: KRKKHRSRVYNNGMPTGMYRWC-OH [C7S]
- Activity (Minimum Inhibitory Concentration, MIC) (S. aureus DPC5246; DPC5246, pH 6.8): 63 µM
- fold reduction in activity compared with bactofencin A (wild type) (S. aureus DPC5246): 63 fold

Molecule: KRKKHRSRVYNNGMPTGMYRWS [C7S-C22S]
- Activity (Minimum Inhibitory Concentration, MIC) (S. aureus DPC5246; DPC5246, pH 6.8): 63 µM

Molecule: KRKKHRXQVYNNGMPTGMYR [plantaricin ST31, bacteriocin produced by sourdough isolate Lactobacillus plantarum ST31 (Todorov et al. 1999); likely natural R8Q variant of bactofencin A]
- activity against Listeria spp., in words (Listeria spp.): inactive
